Biological target: T1, Cdc7 (BEV coexpressed huCDC7/DBF4) (Homo sapiens, UniProt O00311)
T1 construct: made in house; host or cells: BEV (baculovirus expression vector)
Assay: Cdc7 enzyme inhibition assay ([33P]-ATP, biotinylated peptide substrate, FlashPlate)
Assay type: biochemical
Conditions: Ki generated from IC50 assuming ATP-competitive inhibition; 1 μM ATP, apparent ATP Km 0.7 μM
Experimental: This example describes the assays that may be used to identify compounds having kinase activity.
Cdc7 (BEV coexpressed huCDC7/DBF4) is prepared internally. Cdc7 assays are conducted as follows with final concentrations as listed. In 384-well v-bottom polypropylene plates, 6 μL compound (2% DMSO), is mixed with 6 μL of Cdc7 (2 ug/mL), and Jerini peptide substrate A-All (biotin-C6linker-TPSDSLIYDDGLS) (2 μM), followed by immediate initiation with 6 μL […] (1 μM, 20 mCi/μmol) using a reaction buffer comprising 25 mM HEPES, pH 7.5, 1 mM DTT, 10 mM MgCl2, 100 μM Na3VO4, 0.075 mg/ml Triton X-100. Reactions are quenched after 1 hr by the addition of 90 μL stop buffer (50 mM EDTA, 2M NaCl). 85 μL of the stopped reactions are transferred to 384-well streptavidin-coated plates (FlashPlate Plus, Perkin Elmer), incubated 30 minutes at room temperature and washed 3 times with 0.05% Tween-20/PBS using an ELX-405 automated plate washer (BioTek), and counted on a TopCount Scintillation Plate Reader (Packard). IC50 values are determined via non-linear regression fitting of enzyme inhibition data and corresponding Ki values are generated assuming ATP-competitive (equilibrium) inhibition and using the experimentally determined apparent ATP Km of 0.7 μM (as determined using the above assay condition, but varying ATP).
Table 1 depicts enzyme inhibition data (Ki) for exemplary compounds. In Table 1, “A” represents a Ki of less than 10 nM, “B” represents a Ki of between 10 nM and 100 nM, and “C” represents a Ki of greater than 100 nM.

T1 sequence (O00311 whole entry): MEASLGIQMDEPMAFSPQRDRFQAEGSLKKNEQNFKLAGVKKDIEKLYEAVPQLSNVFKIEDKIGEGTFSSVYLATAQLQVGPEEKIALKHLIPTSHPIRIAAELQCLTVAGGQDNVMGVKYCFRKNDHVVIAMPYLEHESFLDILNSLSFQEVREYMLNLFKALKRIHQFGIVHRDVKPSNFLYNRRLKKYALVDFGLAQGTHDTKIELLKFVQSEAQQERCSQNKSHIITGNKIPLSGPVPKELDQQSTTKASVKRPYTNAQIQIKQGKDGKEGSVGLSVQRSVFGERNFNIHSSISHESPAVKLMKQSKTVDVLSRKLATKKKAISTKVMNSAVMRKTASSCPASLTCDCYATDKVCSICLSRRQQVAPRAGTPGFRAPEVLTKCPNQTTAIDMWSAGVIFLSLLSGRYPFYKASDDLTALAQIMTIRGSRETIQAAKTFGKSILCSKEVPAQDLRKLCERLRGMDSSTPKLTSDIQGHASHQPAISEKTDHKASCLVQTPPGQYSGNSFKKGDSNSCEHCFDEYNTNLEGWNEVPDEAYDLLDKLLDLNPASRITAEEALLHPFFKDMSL
T1 sequence (Q9UBU7 whole entry partner): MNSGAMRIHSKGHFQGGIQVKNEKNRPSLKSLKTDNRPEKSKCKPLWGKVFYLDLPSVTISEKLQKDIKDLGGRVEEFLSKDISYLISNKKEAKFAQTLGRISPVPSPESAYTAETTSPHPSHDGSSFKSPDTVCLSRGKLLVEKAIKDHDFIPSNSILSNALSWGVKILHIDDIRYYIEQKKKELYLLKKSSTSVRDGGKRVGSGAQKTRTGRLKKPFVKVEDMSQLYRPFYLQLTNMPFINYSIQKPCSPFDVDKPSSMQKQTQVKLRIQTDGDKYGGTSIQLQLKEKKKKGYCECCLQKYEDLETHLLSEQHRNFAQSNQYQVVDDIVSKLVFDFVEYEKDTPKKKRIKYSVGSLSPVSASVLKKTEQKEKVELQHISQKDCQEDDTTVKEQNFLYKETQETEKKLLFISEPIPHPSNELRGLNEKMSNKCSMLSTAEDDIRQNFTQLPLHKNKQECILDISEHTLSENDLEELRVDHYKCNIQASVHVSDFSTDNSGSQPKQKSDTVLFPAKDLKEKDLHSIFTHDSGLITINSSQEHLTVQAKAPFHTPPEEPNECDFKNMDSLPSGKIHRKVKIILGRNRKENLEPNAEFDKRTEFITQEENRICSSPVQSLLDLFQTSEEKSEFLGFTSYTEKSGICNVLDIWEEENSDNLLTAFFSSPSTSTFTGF

Ki | Compound
< 10 nM | CC(C)N1CCC(Nc2ccc(Cc3c[nH]c(=O)c4cc(-c5c[nH]c6ncccc56)cn34)cc2)CC1 [Example 32, 4-{4-[(1-isopropylpiperidin-4-yl)amino]benzyl}-7-(1H-pyrrolo[2,3-b]pyridin-3-yl)pyrrolo[1,2-a]pyrazin-1(2H)-one]
< 10 nM | CN(C)CC(=O)Nc1cccc(Cc2c[nH]c(=O)c3cc(-c4c[nH]c5ncccc45)cn23)c1 [Example 33, N^2,N^2-dimethyl-N-(3-{[1-oxo-7-(1H-pyrrolo[2,3-b]pyridin-3-yl)-1,2-dihydropyrrolo[1,2-a]pyrazin-4-yl]methyl}phenyl)glycinamide]
< 10 nM | CN(C)CC(=O)NCc1ccc(Cc2c[nH]c(=O)c3cc(-c4c[nH]c5ncccc45)cn23)cc1 [Example 34, N^2,N^2-dimethyl-N-(4-{[1-oxo-7-(1H-pyrrolo[2,3-b]pyridin-3-yl)-1,2-dihydropyrrolo[1,2-a]pyrazin-4-yl]methyl}benzyl)glycinamide]
10 to 100 nM | CCC(CC)Nc1ccc(Cc2c[nH]c(=O)c3cc(-c4c[nH]c5ncccc45)cn23)cc1 [Example 35, 4-[4-(pentan-3-ylamino)benzyl]-7-(1H-pyrrolo[2,3-b]pyridin-3-yl)pyrrolo[1,2-a]pyrazin-1(2H)-one]
< 10 nM | CN(C)Cc1ccc(Cc2c[nH]c(=O)c3cc(-c4c[nH]c5ncccc45)cn23)cc1 [Example 36, 4-{4-[(dimethylamino)methyl]benzyl}-7-(1H-pyrrolo[2,3-b]pyridin-3-yl)pyrrolo[1,2-a]pyrazin-1(2H)-one]
< 10 nM | NCc1ccc(Cc2c[nH]c(=O)c3cc(-c4c[nH]c5ncccc45)cn23)cc1 [Example 37, 4-[4-(aminomethyl)benzyl]-7-(1H-pyrrolo[2,3-b]pyridin-3-yl)pyrrolo[1,2-a]pyrazin-1(2H)-one]
< 10 nM | CS(=O)(=O)Nc1ccc(Cc2c[nH]c(=O)c3cc(-c4c[nH]c5ncccc45)cn23)cc1 [Example 38, N-(4-{[1-oxo-7-(1H-pyrrolo[2,3-b]pyridin-3-yl)-1,2-dihydropyrrolo[1,2-a]pyrazin-4-yl]methyl}phenyl)methanesulfonamide]
< 10 nM | CC(Nc1ccc(Cc2c[nH]c(=O)c3cc(-c4c[nH]c5ncccc45)cn23)cc1)C1CC1 (centres unmarked) [Example 39, 4-{4-[(1-cyclopropylethyl)amino]benzyl}-7-(1H-pyrrolo[2,3-b]pyridin-3-yl)pyrrolo[1,2-a]pyrazin-1(2H)-one]
< 10 nM | CN1CCCC(C(=O)Nc2ccc(Cc3c[nH]c(=O)c4cc(-c5c[nH]c6ncccc56)cn34)cc2)C1 (centres unmarked) [Example 40, 1-methyl-N-(4-{[1-oxo-7-(1H-pyrrolo[2,3-b]pyridin-3-yl)-1,2-dihydropyrrolo[1,2-a]pyrazin-4-yl]methyl}phenyl)piperidine-3-carboxamide]
< 10 nM | CN(C)c1cccc(Cc2c[nH]c(=O)c3cc(-c4c[nH]c5ncccc45)cn23)c1 [Example 41, 4-[3-(dimethylamino)benzyl]-7-(1H-pyrrolo[2,3-b]pyridin-3-yl)pyrrolo[1,2-a]pyrazin-1(2H)-one]
< 10 nM | O=C(Nc1ccc(Cc2c[nH]c(=O)c3cc(-c4c[nH]c5ncccc45)cn23)cc1)c1ccccc1 [Example 42, N-(4-{[1-oxo-7-(1H-pyrrolo[2,3-b]pyridin-3-yl)-1,2-dihydropyrrolo[1,2-a]pyrazin-4-yl]methyl}phenyl)benzamide]
< 10 nM | CS(=O)(=O)Nc1ccc(C(=O)c2c[nH]c(=O)c3cc(-c4c[nH]c5ncccc45)cn23)cc1 [Example 43, N-(4-{[1-oxo-7-(1H-pyrrolo[2,3-b]pyridin-3-yl)-1,2-dihydropyrrolo[1,2-a]pyrazin-4-yl]carbonyl}phenyl)methanesulfonamide]
< 10 nM | NC1CCC(NCc2ccc(Cc3c[nH]c(=O)c4cc(-c5c[nH]c6ncccc56)cn34)cc2)CC1 (centres unmarked) [Example 44, 4-(4-{[(4-aminocyclohexyl)amino]methyl}benzyl)-7-(1H-pyrrolo[2,3-b]pyridin-3-yl)pyrrolo[1,2-a]pyrazin-1(2H)-one]
> 100 nM | CC(=O)NCc1ccc(Cc2c[nH]c(=O)c3cc(-c4c[nH]c5ncccc45)cn23)cc1 [Example 45, N-(4-{[1-oxo-7-(1H-pyrrolo[2,3-b]pyridin-3-yl)-1,2-dihydropyrrolo[1,2-a]pyrazin-4-yl]methyl}benzyl)acetamide]

— US8450320B2, “Pyrrolopyrazinone inhibitors of kinases” (AbbVie Inc., priority 2010, dated 2013)
